# Experimental data reported in paper PMC10575836, “Elevated acetate kinase (ackA) gene expression, activity, and biofilm formation observed in methicillin-resistant strains of Staphylococcus aureus (MRSA)” (Journal of Genetic Engineering & Biotechnology, 2023).
# Molecular target: T1, recombinant ackA (S. aureus ATCC12600 acetate kinase) (Staphylococcus aureus, UniProt Q8NW53)
# T1 construct: full-length, His-6 tag from pQE 30 (Sal I/Hind III), clone PSackA, expressed in E. coli DH5alpha, nickel column, 44 kDa on SDS-PAGE
# T1 sequence (Q8NW53 1-400): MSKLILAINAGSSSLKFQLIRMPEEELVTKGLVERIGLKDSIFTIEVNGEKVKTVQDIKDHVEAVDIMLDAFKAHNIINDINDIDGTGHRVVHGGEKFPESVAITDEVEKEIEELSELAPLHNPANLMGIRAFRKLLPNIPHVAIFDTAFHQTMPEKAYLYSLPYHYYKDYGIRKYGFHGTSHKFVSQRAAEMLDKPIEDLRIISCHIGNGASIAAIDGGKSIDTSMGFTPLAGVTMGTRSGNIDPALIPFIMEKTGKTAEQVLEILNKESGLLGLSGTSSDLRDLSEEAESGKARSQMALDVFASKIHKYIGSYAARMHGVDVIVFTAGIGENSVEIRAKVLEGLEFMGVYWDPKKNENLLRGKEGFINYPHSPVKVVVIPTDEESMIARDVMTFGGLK
# Assay: coupled pyruvate kinase / lactate dehydrogenase assay, NADH at […] nm
# Assay type: biochemical
# Settings: 2 mM potassium acetate, 1.5 mM ATP, 2 mM MgCl2, 100 mM Tris-HCl pH 7.3
compound,measurement,value
CC(=O)O [potassium acetate],"coupled pyruvate kinase / lactate dehydrogenase assay, NADH at 340 nm",Assays were initiated by the addition of either the cytosolic fraction or pure recombinant ackA
